Test results: patent publication US12180187B2, “1-phenyl-5-azinylpyrazolyl-3-oxyalkyl acids and their use for controlling unwanted plant growth” (BAYER AKTIENGESELLSCHAFT, priority 2019, dated 2024)

Key:
AMARE [1] = assay: Post-emergence action at 320 g/ha against AMARE; type: in vivo, Amaranthus retroflexus; conditions: visual rating about 3 weeks after treatment vs untreated controls; for pest or weed control at 320 g/ha: Amaranthus retroflexus, 504 h
Method in brief: (§1)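 Visual % activity vs untreated controls (0% = like control, 100% = plants dead), scored ~3 wk after treatment. Plants were grown in sandy loam in a greenhouse and sprayed on green parts at the one-leaf stage (2–3 wk post-sowing). Spray: WP or EC in water, 0.5% additive, 600 l/ha.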

SETVI = assay: Post-emergence action against SETVI, 1.28 kg/ha; type: in vivo, Setaria viridis; conditions: dosage 1280 g/ha, visual rating about 3 weeks after treatment vs untreated controls
Method in brief: (§2)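 Weeds grown in sandy loam in a greenhouse were sprayed at the one-leaf stage, 2–3 weeks after sowing, with WP or EC formulations in water containing 0.5% additive at 600 L/ha. About 3 weeks later, damage was scored visually versus untreated controls (0% = like control, 100% = dead).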

LOLRI = assay: Pre-emergence action against LOLRI, 1280 g/ha; type: in vivo, Lolium rigidum; conditions: visual scoring after about 3 weeks vs untreated controls, 100% = plants have died, 0% = like control plants; for pest or weed control at 1280 g/ha: Lolium rigidum, 504 h
Method in brief: (§3)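 Percent herbicidal effect, judged by eye relative to untreated pots around 3 weeks after soil-surface treatment. Application: formulated compound in water, 600 L/ha, 0.5% additive, on soil over sown seeds; greenhouse.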

STEME = assay: Post-emergence action against STEME, 1.28 kg/ha; type: in vivo, Stellaria media; conditions: dosage 1280 g/ha, visual rating about 3 weeks after treatment vs untreated controls (100% = plants died)
Method in brief: as §2

DIGSA [2] = assay: Post-emergence action at 320 g/ha against DIGSA; type: in vivo, Digitaria sanguinalis; conditions: dosage 320 g/ha, visual rating about 3 weeks after treatment vs untreated controls (100% = plants died); for pest or weed control at 320 g/ha: Digitaria sanguinalis, 504 h
Method in brief: as §1

POLCO = assay: Post-emergence action at 320 g/ha against POLCO; type: in vivo, Fallopia convolvulus (Polygonum convolvulus); conditions: visual rating about 3 weeks after treatment vs untreated controls; for pest or weed control at 320 g/ha: Fallopia convolvulus, 504 h
Method in brief: as §1

AVEFA = assay: Post-emergence action at 320 g/ha against AVEFA; type: in vivo; conditions: visual rating about 3 weeks after treatment vs untreated controls; for pest or weed control at 320 g/ha: Avena fatua, 504 h
Method in brief: as §1

VERPE = assay: Post-emergence action against VERPE, 1.28 kg/ha; type: in vivo, Veronica persica; conditions: dosage 1280 g/ha, visual rating about 3 weeks after treatment vs untreated controls (100% = plants died); for pest or weed control at 1280 g/ha: Veronica persica, 504 h
Method in brief: as §2

ABUTH = assay: Pre-emergence action against ABUTH, 1280 g/ha; type: in vivo, Abutilon theophrasti; conditions: scored visually after about 3 weeks vs untreated controls (100% = plants have died)
Method in brief: as §3

AMARE [3] = assay: Post-emergence action against AMARE, 1.28 kg/ha; type: in vivo, Amaranthus retroflexus; conditions: dosage 1280 g/ha, visual rating about 3 weeks after treatment vs untreated controls (100% = plants died)
Method in brief: as §2

HORMU = assay: Post-emergence action at 320 g/ha against HORMU; type: in vivo, Hordeum murinum; conditions: visual rating about 3 weeks after treatment vs untreated controls
Excerpt: Accordingly, the compounds of the invention have good herbicidal action against a broad spectrum of weed grasses and broad-leaved weeds and are therefore suitable for controlling unwanted vegetation by the post-emergence method. • b) Seeds of monocotyledonous and dicotyledonous weeds and crop plants are placed in sandy loam in plastic or organic planting pots, covered with soil and cultivated in a greenhouse under controlled growth conditions. 2 to 3 weeks after sowing, the test plants are treated at the one-leaf stage. The compounds of the invention, formulated in the form of wettable powders (WP) or as emulsion concentrates (EC), are then sprayed onto the green parts of the plants as aqueous suspension or emulsion with addition of 0.5% additive at a water application rate of 600 l/ha (converted). After the test plants have been kept in the greenhouse under optimum growth conditions for about 3 weeks, the activity of the preparations is rated visually in comparison to untreated controls. For example, 100% activity=the plants have died, 0% activity=like control plants. Tables 39 to 49 below show the effects of selected compounds of the general formula (I) according to Tables 1 and 2 on various harmful plants and at an application rate corresponding to 320 g/ha, which were obtained by the experimental procedure mentioned above.

ECHCG = assay: Post-emergence action at 320 g/ha against ECHCG; type: in vivo, Echinochloa crus-galli; conditions: dosage 320 g/ha, visual rating about 3 weeks after treatment vs untreated controls (100% = plants died)
Method in brief: as §1

DIGSA [4] = assay: Pre-emergence action against DIGSA, 1280 g/ha; type: in vivo, Digitaria sanguinalis; conditions: visual scoring after about 3 weeks vs untreated controls, 100% = plants have died, 0% = like control plants
Method in brief: as §3

KCHSC [5] = assay: Pre-emergence action against KCHSC, 1280 g/ha; type: in vivo, Bassia scoparia; conditions: scored visually after about 3 weeks vs untreated controls (100% = plants have died)
Method in brief: as §3

KCHSC [6] = assay: Post-emergence action against KCHSC, 1.28 kg/ha; type: in vivo, Bassia scoparia; conditions: dosage 1280 g/ha, visual rating about 3 weeks after treatment vs untreated controls (100% = plants died)
Method in brief: as §2

Row | SMILES | Post-emergence action against SETVI (SETVI) | Post-emergence action against STEME (STEME) | Pre-emergence action against ABUTH (ABUTH) | Post-emergence action against AMARE (AMARE [3]) | Post-emergence action against HORMU in % (HORMU) | Pre-emergence action against LOLRI (LOLRI) | Post-emergence action against POLCO in % (POLCO) | Post-emergence action against AVEFA in % (AVEFA) | Post-emergence action at 320 g/ha against ECHCG in % (ECHCG) | Pre-emergence action against DIGSA (DIGSA [4]) | Post-emergence action against AMARE in % (AMARE [1]) | Post-emergence action at 320 g/ha against DIGSA in % (DIGSA [2]) | Post-emergence action against VERPE (VERPE) | other results
1 | COC(=O)COc1nn(-c2ccccc2F)c(-c2cncnc2)c1Br [VI-004, Methyl {[4-bromo-1-(2-fluorophenyl)-5-(pyrimidin-5-yl)-1H-pyrazol-3-yl]oxy}acetate] | 90% | 90% | 90% | 100% | 90% |  |  |  |  |  |  |  |  | pest or weed control at 320 g/ha (AMARE [1]): 90%; pest or weed control at 1280 g/ha (LOLRI): 100%; pest or weed control at 320 g/ha (DIGSA [2]): 90%; pest or weed control at 320 g/ha (POLCO): 80%; pest or weed control at 320 g/ha (AVEFA): 100%; pest or weed control at 1280 g/ha (VERPE): 90%
2 | COC(=O)COc1nn(-c2ccc(F)cc2)c(-c2ccc(F)nc2)c1Br [VII-002] | 90% | 90% |  |  | 90% | 100% | 80% | 100% | 90% |  |  |  |  | 
3 | CCOC(=O)COc1nn(-c2ccccc2F)c(-c2cncc(F)c2)c1Br [VII-015] | 90% | 100% | 90% | 90% |  | 100% | 100% | 90% | 90% | 90% | 90% | 100% | 100% | 
4 | CCOC(=O)COc1nn(-c2ccc(F)cc2F)c(-c2ccc(F)nc2)c1Cl [VII-016] | 90% | 100% | 100% | 90% | 80% | 100% | 90% | 80% | 80% |  | 90% |  | 90% | 
5 | COC(=O)C(C)Oc1nn(-c2ccccc2)c(-c2ccc(F)nc2)c1Cl (stereo not drawn) [VII-023, Methyl 2-{[4-chloro-5-(6-fluoropyridin-3-yl)-1-phenyl-1H-pyrazol-3-yl]oxy}propanoate] |  | 100% |  |  | 90% |  |  |  | 80% | 90% |  |  |  | pest or weed control at 320 g/ha (AMARE [1]): 90%; pest or weed control at 1280 g/ha (LOLRI): 100%; pest or weed control at 320 g/ha (DIGSA [2]): 90%; pest or weed control at 320 g/ha (POLCO): 90%; pest or weed control at 320 g/ha (AVEFA): 80%; pest or weed control at 1280 g/ha (VERPE): 100%
6 | O=C(O)COc1nn(-c2ccccc2F)c(-c2cncc(F)c2)c1Br [VII-025] | 90% | 100% | 90% | 90% |  | 100% | 90% | 90% | 90% | 100% | 90% | 100% | 100% | Pre-emergence action against KCHSC (KCHSC [5]): 90%
7 | COC(=O)COc1nn(-c2ccc(F)cc2)c(-c2cccnc2)c1Br [VII-028] | 90% | 100% |  | 100% | 80% |  |  | 80% | 80% |  | 80% |  | 90% | 
8 | CCC(Oc1nn(-c2ccccc2F)c(-c2ccc(F)nc2)c1Br)C(=O)OC (stereo not drawn) [VII-029] |  | 100% | 90% | 90% | 90% | 100% | 80% | 90% | 80% | 100% |  |  | 90% | Pre-emergence action against KCHSC (KCHSC [5]): 90%; Post-emergence action against KCHSC (KCHSC [6]): 90%
9 | COC(=O)COc1nn(-c2ccccc2F)c(-c2ccc(F)nc2)c1C(F)(F)F [VII-031] | 90% | 100% | 90% | 90% |  | 100% | 90% | 90% | 90% | 100% | 90% | 100% | 100% | 
10 | COC(=O)COc1nn(-c2ccccc2F)c(-c2cncc(F)c2)c1Br [VII-035] | 90% | 100% | 90% | 90% |  | 100% | 90% | 90% | 90% | 90% | 90% | 100% | 100% | Pre-emergence action against KCHSC (KCHSC [5]): 90%
11 | COC(=O)CCOC(=O)COc1nn(-c2ccccc2F)c(-c2ccc(F)nc2)c1Br [VII-111] | 100% | 100% | 90% | 90% |  | 100% | 90% | 90% | 90% | 100% | 90% | 90% | 90% | 
12 | O=C(O)COc1nn(-c2ccccc2F)c(-c2ccnc(F)c2)c1Br [VIII-004] | 100% | 100% |  | 90% | 90% | 100% | 80% | 100% | 90% |  | 90% | 90% | 90% | 
